Measurements as given in ChEMBL document CHEMBL3885861, “Open TG-GATES”.

Species on record: Rattus norvegicus
Experiment: Open TG-GATES - Regimen: Daily Repeat
Type: toxicity, organism-based, Sprague-Dawley
Design: regimen Daily Repeat, gender Male, age 6 weeks
Details: in vivo, po, 100 mg/kg, route gavage, dose level High; for APTT / Bas / Eos / Fbg / Hb / Ht / Lym / MCH / MCHC / MCV / Mono / Neu / PT / Plat / RBC / Ret / WBC: tissue Blood; for KIDNEY_L / KIDNEY_R / KIDNEY_TOTAL: tissue Kidney; for LIVER: tissue Liver; for A/G / ALP / ALT / AST / BUN / CRE / Ca / Cl / DBIL / GLC / IP / K / LDH / Na / PL / RALB / TBIL / TC / TG / TP / gamma-GTP: tissue Plasma

CC1=C(/C=C/C(C)=C/C=C/C(C)=C/CO)C(C)(C)CCC1 [RETINOL]
TERMINAL_BW (72 h, time 3 day): 214.3 g
APTT (72 h, time 3 day): 29 s
Bas (72 h, time 3 day): 0%
Eos (72 h, time 3 day): 0.4%
Fbg (72 h, time 3 day): 274.4 mg/dL
Hb (72 h, time 3 day): 13.8 g/dL
Ht (72 h, time 3 day): 39.8%
Lym (72 h, time 3 day): 74.4%
MCH (72 h, time 3 day): 21 pg
MCHC (72 h, time 3 day): 34.6%
MCV (72 h, time 3 day): 60.9 fL
Mono (72 h, time 3 day): 3.4%
Neu (72 h, time 3 day): 20.6%
PT (72 h, time 3 day): 18.1 s
Plat (72 h, time 3 day): 112.8 x10_4/uL
RBC (72 h, time 3 day): 654.8 x10_4/ul
Ret (72 h, time 3 day): 4.3%
WBC (72 h, time 3 day): 95.3 x10_2/uL
KIDNEY_L (72 h, time 3 day): 1 g
KIDNEY_R (72 h, time 3 day): 1 g
KIDNEY_TOTAL (72 h, time 3 day): 2 g
LIVER (72 h, time 3 day): 10.3 g
A/G (72 h, time 3 day): 1.3
ALP (72 h, time 3 day): 2174.2 IU/L
ALT (72 h, time 3 day): 52.2 IU/L
AST (72 h, time 3 day): 83.8 IU/L
BUN (72 h, time 3 day): 17 mg/dL
CRE (72 h, time 3 day): 0.1 mg/dL
Ca (72 h, time 3 day): 11.1 mg/dL
Cl (72 h, time 3 day): 107 meq/L
DBIL (72 h, time 3 day): 0.004 mg/dL
GLC (72 h, time 3 day): 192.2 mg/dL
IP (72 h, time 3 day): 7.9 mg/dL
K (72 h, time 3 day): 4.3 meq/L
LDH (72 h, time 3 day): 241 IU/L
Na (72 h, time 3 day): 141.8 meq/L
PL (72 h, time 3 day): 151.2 mg/dL
RALB (72 h, time 3 day): 3.1 g/dL
TBIL (72 h, time 3 day): 0.01 mg/dL
TC (72 h, time 3 day): 70.6 mg/dL
TG (72 h, time 3 day): 196.2 mg/dL
TP (72 h, time 3 day): 5.6 g/dL
gamma-GTP (72 h, time 3 day): 1.4 IU/L
TERMINAL_BW ([…], time 7 day): 231.5 g
TERMINAL_BW ([…], time 14 day): 234.2 g
TERMINAL_BW ([…], time 28 day): 190.7 g
APTT ([…], time 7 day): 32.7 s
Bas ([…], time 7 day): 0%
Eos ([…], time 7 day): 0.2%
Fbg ([…], time 7 day): 293.8 mg/dL
Hb ([…], time 7 day): 13.6 g/dL
Ht ([…], time 7 day): 38.5%
Lym ([…], time 7 day): 73.2%
MCH ([…], time 7 day): 21.1 pg
MCHC ([…], time 7 day): 35.2%
MCV ([…], time 7 day): 60 fL
Mono ([…], time 7 day): 2.6%
Neu ([…], time 7 day): 22.4%
PT ([…], time 7 day): 16.1 s
Plat ([…], time 7 day): 114.4 x10_4/uL
RBC ([…], time 7 day): 642.2 x10_4/ul
Ret ([…], time 7 day): 2%
WBC ([…], time 7 day): 102.2 x10_2/uL
APTT ([…], time 14 day): 43.8 s
Bas ([…], time 14 day): 0%
Eos ([…], time 14 day): 0.4%
Fbg ([…], time 14 day): 373.8 mg/dL
Hb ([…], time 14 day): 13 g/dL
Ht ([…], time 14 day): 36.5%
Lym ([…], time 14 day): 62.8%
MCH ([…], time 14 day): 20.2 pg
MCHC ([…], time 14 day): 35.6%
MCV ([…], time 14 day): 56.6 fL
Mono ([…], time 14 day): 4.2%
Neu ([…], time 14 day): 31.8%
PT ([…], time 14 day): 18.5 s
Plat ([…], time 14 day): 127.2 x10_4/uL
RBC ([…], time 14 day): 644.8 x10_4/ul
Ret ([…], time 14 day): 1.3%
WBC ([…], time 14 day): 139.1 x10_2/uL
APTT ([…], time 28 day): 37 s
Bas ([…], time 28 day): 0%
Eos ([…], time 28 day): 0.5%
Fbg ([…], time 28 day): 294 mg/dL
Hb ([…], time 28 day): 12.1 g/dL
Ht ([…], time 28 day): 34.3%
Lym ([…], time 28 day): 60.5%
MCH ([…], time 28 day): 17.9 pg
MCHC ([…], time 28 day): 35.2%
MCV ([…], time 28 day): 50.8 fL
Mono ([…], time 28 day): 5%
Neu ([…], time 28 day): 33.5%
PT ([…], time 28 day): 17.8 s
Plat ([…], time 28 day): 144.9 x10_4/uL
RBC ([…], time 28 day): 673 x10_4/ul
Ret ([…], time 28 day): 2.9%
WBC ([…], time 28 day): 160.4 x10_2/uL
KIDNEY_L ([…], time 7 day): 1.1 g
KIDNEY_R ([…], time 7 day): 1.1 g
KIDNEY_TOTAL ([…], time 7 day): 2.2 g
KIDNEY_L ([…], time 14 day): 1.1 g
KIDNEY_R ([…], time 14 day): 1.1 g
KIDNEY_TOTAL ([…], time 14 day): 2.2 g
KIDNEY_L ([…], time 28 day): 1 g
KIDNEY_R ([…], time 28 day): 1.1 g
KIDNEY_TOTAL ([…], time 28 day): 2.1 g
LIVER ([…], time 7 day): 11.9 g
LIVER ([…], time 14 day): 11.2 g
LIVER ([…], time 28 day): 9.5 g
A/G ([…], time 7 day): 1
ALP ([…], time 7 day): 2413.2 IU/L
ALT ([…], time 7 day): 47.8 IU/L
AST ([…], time 7 day): 91.4 IU/L
BUN ([…], time 7 day): 16.8 mg/dL
CRE ([…], time 7 day): 0.2 mg/dL
Ca ([…], time 7 day): 11.5 mg/dL
Cl ([…], time 7 day): 104.8 meq/L
DBIL ([…], time 7 day): 0 mg/dL
GLC ([…], time 7 day): 182.6 mg/dL
IP ([…], time 7 day): 8.9 mg/dL
K ([…], time 7 day): 4.3 meq/L
LDH ([…], time 7 day): 266 IU/L
Na ([…], time 7 day): 142.6 meq/L
PL ([…], time 7 day): 162.2 mg/dL
RALB ([…], time 7 day): 2.8 g/dL
TBIL ([…], time 7 day): 0.008 mg/dL
TC ([…], time 7 day): 76.4 mg/dL
TG ([…], time 7 day): 306.2 mg/dL
TP ([…], time 7 day): 5.6 g/dL
gamma-GTP ([…], time 7 day): 1.4 IU/L
A/G ([…], time 14 day): 0.7
ALP ([…], time 14 day): 1719.6 IU/L
ALT ([…], time 14 day): 43.8 IU/L
AST ([…], time 14 day): 99.6 IU/L
BUN ([…], time 14 day): 13.6 mg/dL
CRE ([…], time 14 day): 0.2 mg/dL
Ca ([…], time 14 day): 11.3 mg/dL
Cl ([…], time 14 day): 106.2 meq/L
DBIL ([…], time 14 day): 0 mg/dL
GLC ([…], time 14 day): 186.6 mg/dL
IP ([…], time 14 day): 7.7 mg/dL
K ([…], time 14 day): 4.1 meq/L
LDH ([…], time 14 day): 212.8 IU/L
Na ([…], time 14 day): 141.8 meq/L
PL ([…], time 14 day): 136.2 mg/dL
RALB ([…], time 14 day): 2.1 g/dL
TBIL ([…], time 14 day): 0.002 mg/dL
TC ([…], time 14 day): 67.8 mg/dL
TG ([…], time 14 day): 151.8 mg/dL
TP ([…], time 14 day): 5 g/dL
gamma-GTP ([…], time 14 day): 1.2 IU/L
A/G ([…], time 28 day): 0.6
ALP ([…], time 28 day): 1327.7 IU/L
ALT ([…], time 28 day): 55.3 IU/L
AST ([…], time 28 day): 166.3 IU/L
BUN ([…], time 28 day): 52 mg/dL
CRE ([…], time 28 day): 0.3 mg/dL
Ca ([…], time 28 day): 10.5 mg/dL
Cl ([…], time 28 day): 113 meq/L
DBIL ([…], time 28 day): 0.01 mg/dL
GLC ([…], time 28 day): 225 mg/dL
IP ([…], time 28 day): 9.1 mg/dL
K ([…], time 28 day): 4.1 meq/L
LDH ([…], time 28 day): 685.3 IU/L
Na ([…], time 28 day): 148.3 meq/L
PL ([…], time 28 day): 85 mg/dL
RALB ([…], time 28 day): 1.7 g/dL
TBIL ([…], time 28 day): 0.0233 mg/dL
TC ([…], time 28 day): 43.7 mg/dL
TG ([…], time 28 day): 57.3 mg/dL
TP ([…], time 28 day): 4.4 g/dL
gamma-GTP ([…], time 28 day): 2.3 IU/L
